Holding throughout (assay): Zones of inhibition of impregnated catheter segments, modified Kirby-Bauer method
The test system of one assay is MRSE. The assay is classed as cell-based, Staphylococcus epidermidis. How it is done:
(§1) To evaluate the antimicrobial activity of central venous catheters treated with α-lipoic acid or its combination with gentamicin, segments of 7 French triple lumen polyurethane central venous catheters were impregnated with α-lipoic acid, gentamicin, or the combination of lipoic acid and gentamicin using the same patented method described in Example 1 with 50 mg/ml of each agent (for the final solution volume). After the impregnation process and drying, zones of inhibition were performed on one-centimeter segments according to a modified Kirby-Bauer method against MSSE, MRSE, MRSA, K. pneumoniae, E. coli, P. mirabilis, Pseudomonas aeruginosa, and Candida albicans. Each segment was half embedded in the center of a Muller-Hinton agar plate that had been previously inoculated with an individual organism. Prior to placing the catheter segments in agar, each organism was grown for 18 hours in TSB to a concentration of 0.5 McFarland (10^8 cfu/ml). A cotton swab was placed in the suspension and streaked across the surface of the Muller-Hinton agar plate to cover the entire plate. All plates were placed in a 37° C. incubator for 24 hours. Zones were measured in mm after the incubation period (Table 2).
(§2) To evaluate the antimicrobial activity of central venous catheters treated with α-lipoic acid or its combination with doxycycline, segments of 7 French triple lumen polyurethane central venous catheters were impregnated with doxycycline or the combinations of α-lipoic acid and doxycycline using the same patented method described in Example 1 (U.S. Pat. No. 6,589,591) with 50 mg/ml of each agent (for the final solution volume). After the impregnation process and drying, zones of inhibition were performed on one-centimeter segments according to a modified Kirby-Bauer method against MSSE, MRSE, MRSA, K. pneumoniae, E. coli, P. aeruginosa, P. mirabilis, and C. albicans as described in Example 2. Zones of inhibition were measured in mm after the incubation period (Table 3).
(§3) To evaluate the antimicrobial activity of central venous catheters treated with lipoamide or its combination with levofloxacin, segments of 7 French triple lumen polyurethane central venous catheters were impregnated with levofloxacin or the combinations of lipoamide and levofloxacin using the same patented method described in Example 1 (U.S. Pat. No. 6,589,591) with 100 mg/ml (final solution volume) of each agent. After the impregnation process and drying, zones of inhibition were performed on one-centimeter segments according to a modified Kirby-Bauer method against MSSE, MRSE, MRSA, vancomycin-resistant Enterococcus (VRE), K. pneumoniae, E. coli, P. aeruginosa, P. mirabilis, and C. albicans as described in Example 2. Zones of inhibition were measured in mm after the incubation period (Table 4).
as §3, with “doxycycline,” for “levofloxacin,”, “doxycycline” for “levofloxacin”, “5).” for “4).”
(§4) To evaluate the antimicrobial activity of central venous catheters treated with dihydrolipoic acid, segments of 7 French triple lumen polyurethane central venous catheters were impregnated with dihydrolipoic acid using the same patented method described in Example 1 (U.S. Pat. No. 6,589,591) with 25 mg/ml (final solution volume) of the agent. […]

A further assay has as its system MSSE. The assay is classed as cell-based, Staphylococcus epidermidis. How it is done:
as §1, §2, §3
as §3, with “doxycycline,” for “levofloxacin,”, “doxycycline” for “levofloxacin”, “5).” for “4).”
as §4

A further assay has as its system Candida albicans. The assay is classed as cell-based. As for the experimental part:
as §1, §2, §3
as §3, with “doxycycline,” for “levofloxacin,”, “doxycycline” for “levofloxacin”, “5).” for “4).”
as §4

A further assay concerns Escherichia coli. The assay is classed as cell-based. How it is done: as §1, §2, §3
as §3, with “doxycycline,” for “levofloxacin,”, “doxycycline” for “levofloxacin”, “5).” for “4).”
as §4

In the next assay the test system is Klebsiella pneumoniae II. The assay is classed as cell-based. As for the experimental part: as §1, §2, §3
as §3, with “doxycycline,” for “levofloxacin,”, “doxycycline” for “levofloxacin”, “5).” for “4).”
as §4

A further assay concerns Klebsiella pneumoniae I. The class given is cell-based. As for the experimental part:
as §1, §2, §3
as §3, with “doxycycline,” for “levofloxacin,”, “doxycycline” for “levofloxacin”, “5).” for “4).”
as §4

For a further assay, the system named is Proteus mirabilis. The assay is classed as cell-based. How it is done:
as §1, §2, §3
as §3, with “doxycycline,” for “levofloxacin,”, “doxycycline” for “levofloxacin”, “5).” for “4).”
as §4

The subject of another assay is Pseudomonas aeruginosa. The assay is classed as cell-based. How it is done: as §1, §2, §3
as §3, with “doxycycline,” for “levofloxacin,”, “doxycycline” for “levofloxacin”, “5).” for “4).”
as §4

[1] abbreviates: catheter impregnated with 25 mg/ml of the agent.
Setting [2] is: Staphylococcus epidermidis, catheter impregnated with 100 mg/ml of each agent.
The mark [3] stands for this setting: catheter impregnated with 100 mg/ml of each agent.
Setting [4] is: Staphylococcus epidermidis, catheter impregnated with 50 mg/ml of each agent, 37° C., 24 hours.
The mark [5] stands for this setting: catheter impregnated with 50 mg/ml of each agent, 37° C., 24 hours.

Usually zone of inhibition stands for the size of the clear area around the sample on an inoculated plate.

SMILES strings stand for the structures.

In the case of `O=C(O)CCCCC(S)CCS` (stereo not drawn) [Dihydrolipoic acid, 6,8-dimercaptooctanoic acid], the Zones of inhibition in the assay on MRSE (setting [1]) was 21 mm; with MSSE (setting [1]) it was 25 mm; in the assay with Candida albicans (setting [1]), 13 mm; with Escherichia coli (setting [1]), 0 mm; in the assay with Klebsiella pneumoniae II (Klebsiella pneumoniae II, catheter impregnated with 25 mg/ml of the agent), 0 mm; with Klebsiella pneumoniae I (setting [1]) it was 0 mm. In addition, the Zones of inhibition was 0 mm in the assay on Proteus mirabilis (setting [1]) and 11 mm with Pseudomonas aeruginosa (Pseudomonas aeroginosa, catheter impregnated with 25 mg/ml of the agent).
Consider `NC(=O)CCCCC1CCSS1` (stereo not drawn) [Lipoamide, lipoamide], for which the zone of inhibition at 100000 µg/mL in the assay with MRSE (setting [2]) turned out to be 16 mm; with MSSE (setting [2]), 24 mm; in the assay on Candida albicans (setting [3]), 6 mm; with Escherichia coli (setting [3]) it was 10 mm; in the assay on Klebsiella pneumoniae II (Klebsiella pneumoniae II, catheter impregnated with 100 mg/ml of each agent), 13 mm; in the assay on Klebsiella pneumoniae I (setting [3]), 12 mm. The zone of inhibition at 100000 µg/mL with Proteus mirabilis (setting [3]) worked out at 13 mm; with Pseudomonas aeruginosa (Pseudomonas aeruginosa, Pseudomonas aeroginosa, catheter impregnated with 100 mg/ml of each agent), 18 mm.
For the compound `O=C(O)CCCCC1CCSS1` (stereo not drawn) [Lipoic acid, 1,2-dithiolane-3-pentanoic acid], the zone of inhibition at 50000 µg/mL in the assay with MRSE (setting [4]) is 22 mm; with MSSE (setting [4]), 32 mm; with Candida albicans (setting [5]), 10 mm; in the assay with Escherichia coli (setting [5]) it was 12 mm; with Klebsiella pneumoniae II (Klebsiella pneumoniae, Klebsielle pneuminiae II, catheter impregnated with 50 mg/ml of each agent, 37° C., 24 hours), 18 mm; in the assay on Klebsiella pneumoniae I (setting [5]), 20 mm. The zone of inhibition at 50000 µg/mL was found to be 12 mm in the assay with Proteus mirabilis (setting [5]) and 5 mm with Pseudomonas aeruginosa (Pseudomonas aeruginosa, catheter impregnated with 50 mg/ml of each agent, 37° C., 24 hours).

These data come from patent US9956319B2, “Compositions useful as antibiofilm or antimicrobial agents and methods using same” (BAYLOR COLLEGE OF MEDICINE, priority 2012, dated 2018).
